Measurements published in US12084467B2, “Therapeutic compounds for HIV virus infection” (Gilead Sciences, Inc., priority 2021, dated 2024).
In brackets after ≈: the same amount, converted by molar mass.

Legend:
physchem = conditions: 25 °C, fassif, thermodynamic from solid
[1] = Kinetic solubility analysis (CLND: total chemiluminescent nitrogen determination); conditions: 1.0% DMSO, 24-hour incubation at ambient temperature, maximum theoretical concentration 100 μM; for pH 2 solubility: 0.1N HCl; for pH 7 solubility: 1×PBS buffer (pH 7.4)
[2] = Solubility in simulated intestinal fluids (FaSSIF / FeSSIF); conditions: 25 °C, thermodynamic from solid
[3] = fasted state simulated intestinal fluid (FaSSIF), fassif
[4] = fed state simulated intestinal fluid (FeSSIF), fessif

CC(C)(C#Cc1ccc(-c2ccc(Cl)c3c(N(C(=O)[C@H]4C[C@@H](C(=O)O)C4)S(C)(=O)=O)nn(CC(F)(F)F)c23)c([C@H](Cc2cc(F)cc(F)c2)NC(=O)Cn2nc(C(F)(F)F)c3c2C(F)(F)[C@@H]2C[C@H]32)n1)S(C)(=O)=O [Compound 14, ((1R,3s)-3-((4-chloro-7-(2-((S)-1-(2-((3bS,4aR)-5,5-difluoro-3-(trifluoromethyl)-3b,4,4a,5-tetrahydro-1H-cyclopropa[3,4]cyclopenta[1,2-c]pyrazol-1-yl)acetamido)-2-(3,5-difluorophenyl)ethyl)-6-(3-methyl-3-(methylsulfonyl)but-1-yn-1-yl)pyridin-3-yl)-1-(2,2,2-trifluoroethyl)-1H-indazol-3-yl)(methylsulfonyl)carbamoyl)cyclobutane-1-carboxylic acid)]
solubility (physchem): 9 µg/mL (≈ 8.22 µM) | pH 2 solubility [1]: 1 μM | pH 7 solubility [1]: 8 μM

CC(C)(C#Cc1ccc(-c2ccc(Cl)c3c(N(C(=O)[C@H]4C[C@H](C(=O)O)C4)S(C)(=O)=O)nn(CC(F)(F)F)c23)c([C@H](Cc2cc(F)cc(F)c2)NC(=O)Cn2nc(C(F)(F)F)c3c2C(F)(F)[C@@H]2C[C@H]32)n1)S(C)(=O)=O [Compound 13, (1S,3r)-3-((4-chloro-7-(2-((S)-1-(2-((3bS,4aR)-5,5-difluoro-3-(trifluoromethyl)-3b,4,4a,5-tetrahydro-1H-cyclopropa[3,4]cyclopenta[1,2-c]pyrazol-1-yl)acetamido)-2-(3,5-difluorophenyl)ethyl)-6-(3-methyl-3-(methylsulfonyl)but-1-yn-1-yl)pyridin-3-yl)-1-(2,2,2-trifluoroethyl)-1H-indazol-3-yl)(methylsulfonyl)carbamoyl)cyclobutane-1-carboxylic acid]
solubility (physchem): 9 µg/mL (≈ 8.22 µM) | pH 2 solubility [1]: 1 μM | pH 7 solubility [1]: 15 μM

CC(C)(C#Cc1ccc(-c2ccc(Cl)c3c(N(C(=O)N4CCC[C@H]4C(=O)OCOP(=O)(O)O)S(C)(=O)=O)nn(CC(F)(F)F)c23)c([C@H](Cc2cc(F)cc(F)c2)NC(=O)Cn2nc(C(F)(F)F)c3c2C(F)(F)[C@@H]2C[C@H]32)n1)S(C)(=O)=O [Compound 27, (phosphonooxy)methyl ((4-chloro-7-(2-((S)-1-(2-((3bS,4aR)-5,5-difluoro-3-(trifluoromethyl)-3b,4,4a,5-tetrahydro-1H-cyclopropa[3,4]cyclopenta[1,2-c]pyrazol-1-yl)acetamido)-2-(3,5-difluorophenyl)ethyl)-6-(3-methyl-3-(methylsulfonyl)but-1-yn-1-yl)pyridin-3-yl)-1-(2,2,2-trifluoroethyl)-1H-indazol-3-yl)(methylsulfonyl)carbamoyl)-L-prolinate]
solubility (physchem): 512 µg/mL (≈ 420 µM) | pH 2 solubility [1]: 2 μM | pH 7 solubility [1]: 68 μM

CC(C)(C#Cc1ccc(-c2ccc(Cl)c3c(N(C(=O)c4ccccc4CN(CCC(=O)O)C(=O)OCOP(=O)(O)O)S(C)(=O)=O)nn(CC(F)(F)F)c23)c([C@H](Cc2cc(F)cc(F)c2)NC(=O)Cn2nc(C(F)(F)F)c3c2C(F)(F)[C@@H]2C[C@H]32)n1)S(C)(=O)=O [Compound 21, 3-((2-((4-chloro-7-(2-((S)-1-(2-((3bS,4aR)-5,5-difluoro-3-(trifluoromethyl)-3b,4,4a,5-tetrahydro-1H-cyclopropa[3,4]cyclopenta[1,2-c]pyrazol-1-yl)acetamido)-2-(3,5-difluorophenyl)ethyl)-6-(3-methyl-3-(methylsulfonyl)but-1-yn-1-yl)pyridin-3-yl)-1-(2,2,2-trifluoroethyl)-1H-indazol-3-yl)(methylsulfonyl)carbamoyl)benzyl)(((phosphonooxy)methoxy)carbonyl)amino)propanoi c acid]
solubility [2, 3]: 1110 µg/mL (≈ 835 µM) | solubility [2, 4]: 1420 µg/mL (≈ 1070 µM) | pH 2 solubility [1]: 1 μM | pH 7 solubility [1]: 100 μM

CC(C)(C#Cc1ccc(-c2ccc(Cl)c3c(N(C(=O)C4(C(=O)O)CC4)S(C)(=O)=O)nn(CC(F)(F)F)c23)c([C@H](Cc2cc(F)cc(F)c2)NC(=O)Cn2nc(C(F)(F)F)c3c2C(F)(F)[C@@H]2C[C@H]32)n1)S(C)(=O)=O [Compound 18, 1-((4-chloro-7-(2-((S)-1-(2-((3bS,4aR)-5,5-difluoro-3-(trifluoromethyl)-3b,4,4a,5-tetrahydro-1H-cyclopropa[3,4]cyclopenta[1,2-c]pyrazol-1-yl)acetamido)-2-(3,5-difluorophenyl)ethyl)-6-(3-methyl-3-(methylsulfonyl)but-1-yn-1-yl)pyridin-3-yl)-1-(2,2,2-trifluoroethyl)-1H-indazol-3-yl)(methylsulfonyl)carbamoyl)cyclopropane-1-carboxylic acid]
solubility [2, 3]: 42 µg/mL (≈ 38.9 µM) | solubility [2, 4]: 21 µg/mL (≈ 19.4 µM) | pH 2 solubility [1]: 1 μM | pH 7 solubility [1]: 8 μM

CC(C)(C#Cc1ccc(-c2ccc(Cl)c3c(N(C(=O)[C@H]4C[C@H]4C(=O)OCOP(=O)(O)O)S(C)(=O)=O)nn(CC(F)(F)F)c23)c([C@H](Cc2cc(F)cc(F)c2)NC(=O)Cn2nc(C(F)(F)F)c3c2C(F)(F)[C@@H]2C[C@H]32)n1)S(C)(=O)=O [Compound 12, (phosphonooxy)methyl (1R,2S)-2-((4-chloro-7-(2-((S)-1-(2-((3bS,4aR)-5,5-difluoro-3-(trifluoromethyl)-3b,4,4a,5-tetrahydro-1H-cyclopropa[3,4]cyclopenta[1,2-c]pyrazol-1-yl)acetamido)-2-(3,5-difluorophenyl)ethyl)-6-(3-methyl-3-(methylsulfonyl)but-1-yn-1-yl)pyridin-3-yl)-1-(2,2,2-trifluoroethyl)-1H-indazol-3-yl)(methylsulfonyl)carbamoyl)cyclopropane-1-carboxylate]
solubility (physchem): 2100 µg/mL (≈ 1760 µM) | pH 2 solubility [1]: 1 μM | pH 7 solubility [1]: 71 μM

CC(C)(C#Cc1ccc(-c2ccc(Cl)c3c(N(C(=O)c4ccccc4C(=O)OCOP(=O)(O)O)S(C)(=O)=O)nn(CC(F)(F)F)c23)c([C@H](Cc2cc(F)cc(F)c2)NC(=O)Cn2nc(C(F)(F)F)c3c2C(F)(F)[C@@H]2C[C@H]32)n1)S(C)(=O)=O [Compound 19, (phosphonooxy)methyl 2-((4-chloro-7-(2-((S)-1-(2-((3bS,4aR)-5,5-difluoro-3-(trifluoromethyl)-3b,4,4a,5-tetrahydro-1H-cyclopropa[3,4]cyclopenta[1,2-c]pyrazol-1-yl)acetamido)-2-(3,5-difluorophenyl)ethyl)-6-(3-methyl-3-(methylsulfonyl)but-1-yn-1-yl)pyridin-3-yl)-1-(2,2,2-trifluoroethyl)-1H-indazol-3-yl)(methylsulfonyl)carbamoyl)benzoate]
solubility [2, 3]: 816 µg/mL (≈ 665 µM) | solubility [2, 4]: 487 µg/mL (≈ 397 µM) | pH 2 solubility [1]: 2 μM | pH 7 solubility [1]: 75 μM

CC(C)(C#Cc1ccc(-c2ccc(Cl)c3c(N(C(=O)N4CC(C(=O)O)C4)S(C)(=O)=O)nn(CC(F)(F)F)c23)c([C@H](Cc2cc(F)cc(F)c2)NC(=O)Cn2nc(C(F)(F)F)c3c2C(F)(F)[C@@H]2C[C@H]32)n1)S(C)(=O)=O [Compound 24, 1-((4-chloro-7-(2-((S)-1-(2-((3bS,4aR)-5,5-difluoro-3-(trifluoromethyl)-3b,4,4a,5-tetrahydro-1H-cyclopropa[3,4]cyclopenta[1,2-c]pyrazol-1-yl)acetamido)-2-(3,5-difluorophenyl)ethyl)-6-(3-methyl-3-(methylsulfonyl)but-1-yn-1-yl)pyridin-3-yl)-1-(2,2,2-trifluoroethyl)-1H-indazol-3-yl)(methylsulfonyl)carbamoyl)azetidine-3-carboxylic acid]
solubility [2, 3]: 75 µg/mL (≈ 68.5 µM) | solubility [2, 4]: 21 µg/mL (≈ 19.2 µM) | pH 2 solubility [1]: 1 μM | pH 7 solubility [1]: 100 μM

CC(C)(C#Cc1ccc(-c2ccc(Cl)c3c(N(C(=O)N4CCC[C@H]4CN(CC(=O)O)C(=O)OCOP(=O)(O)O)S(C)(=O)=O)nn(CC(F)(F)F)c23)c([C@H](Cc2cc(F)cc(F)c2)NC(=O)Cn2nc(C(F)(F)F)c3c2C(F)(F)[C@@H]2C[C@H]32)n1)S(C)(=O)=O [Compound 33, N—(((S)-1-((4-chloro-7-(2-((S)-1-(2-((3bS,4aR)-5,5-difluoro-3-(trifluoromethyl)-3b,4,4a,5-tetrahydro-1H-cyclopropa[3,4]cyclopenta[1,2-c]pyrazol-1-yl)acetamido)-2-(3,5-difluorophenyl)ethyl)-6-(3-methyl-3-(methylsulfonyl)but-1-yn-1-yl)pyridin-3-yl)-1-(2,2,2-trifluoroethyl)-1H-indazol-3-yl)(methylsulfonyl)carbamoyl)pyrrolidin-2-yl)methyl)-N-(((phosphonooxy)methoxy)carbonyl)glycine]
solubility ([2]; fassif): 5020 µg/mL (≈ 3840 µM) | pH 2 solubility [1]: 1 μM | pH 7 solubility [1]: 100 μM

CC(C)(C#Cc1ccc(-c2ccc(Cl)c3c(N(C(=O)c4ccccc4COP(=O)(O)O)S(C)(=O)=O)nn(CC(F)(F)F)c23)c([C@H](Cc2cc(F)cc(F)c2)NC(=O)Cn2nc(C(F)(F)F)c3c2C(F)(F)[C@@H]2C[C@H]32)n1)S(C)(=O)=O [Compound 22, 2-((4-chloro-7-(2-((S)-1-(2-((3bS,4aR)-5,5-difluoro-3-(trifluoromethyl)-3b,4,4a,5-tetrahydro-1H-cyclopropa[3,4]cyclopenta[1,2-c]pyrazol-1-yl)acetamido)-2-(3,5-difluorophenyl)ethyl)-6-(3-methyl-3-(methylsulfonyl)but-1-yn-1-yl)pyridin-3-yl)-1-(2,2,2-trifluoroethyl)-1H-indazol-3-yl)(methylsulfonyl)carbamoyl)benzyl dihydrogen phosphate]
solubility [2, 3]: 618 µg/mL | solubility [2, 4]: 534 µg/mL | pH 2 solubility [1]: 1 μM | pH 7 solubility [1]: 100 μM
